From patent US20200390899A1, “AMINOBENZAZEPINE COMPOUNDS, IMMUNOCONJUGATES, AND USES THEREOF” (BOLT BIOTHERAPEUTICS, INC., priority 2019, published 2020)
Like-named read-outs stand apart in the source and are kept apart here.

Columns and labels:
human TLR7 = molecular target: T1, human TLR7 (Homo sapiens, UniProt Q9NYK1); assay: HEK293 NFKB reporter assay, human TLR7; type: cell-based
T1 construct: host or cells: HEK293 reporter cells
T1 sequence (Q9NYK1 27-1049): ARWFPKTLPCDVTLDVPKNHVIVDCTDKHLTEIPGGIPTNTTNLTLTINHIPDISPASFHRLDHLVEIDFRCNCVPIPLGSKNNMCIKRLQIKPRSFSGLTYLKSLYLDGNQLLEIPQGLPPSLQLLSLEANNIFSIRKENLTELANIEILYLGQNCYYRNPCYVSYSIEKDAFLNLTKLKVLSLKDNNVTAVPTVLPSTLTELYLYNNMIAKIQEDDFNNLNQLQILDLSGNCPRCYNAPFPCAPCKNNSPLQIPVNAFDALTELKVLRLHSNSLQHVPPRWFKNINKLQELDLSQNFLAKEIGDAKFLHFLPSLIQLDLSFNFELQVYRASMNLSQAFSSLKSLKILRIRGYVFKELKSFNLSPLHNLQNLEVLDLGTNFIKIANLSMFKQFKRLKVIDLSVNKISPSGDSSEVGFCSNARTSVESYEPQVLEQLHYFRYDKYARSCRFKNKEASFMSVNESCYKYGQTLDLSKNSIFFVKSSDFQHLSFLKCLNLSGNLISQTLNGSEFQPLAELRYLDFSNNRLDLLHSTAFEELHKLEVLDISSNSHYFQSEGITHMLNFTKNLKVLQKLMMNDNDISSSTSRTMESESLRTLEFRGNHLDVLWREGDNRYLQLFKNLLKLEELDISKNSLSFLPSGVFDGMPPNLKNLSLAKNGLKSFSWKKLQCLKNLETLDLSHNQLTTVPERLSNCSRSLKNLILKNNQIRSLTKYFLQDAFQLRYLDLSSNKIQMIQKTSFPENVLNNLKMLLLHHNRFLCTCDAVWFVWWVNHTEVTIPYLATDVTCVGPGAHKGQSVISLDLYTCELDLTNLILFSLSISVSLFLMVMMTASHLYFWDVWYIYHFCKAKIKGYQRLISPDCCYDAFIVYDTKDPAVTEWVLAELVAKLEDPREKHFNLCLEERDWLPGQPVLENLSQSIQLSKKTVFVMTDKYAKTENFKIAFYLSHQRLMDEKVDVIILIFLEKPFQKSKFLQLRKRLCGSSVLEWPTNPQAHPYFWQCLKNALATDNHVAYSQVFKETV
Method: (§1) Each compound was synthesized and purified by the methods in the Examples provided herein, characterized by mass spectrometry, and shown to have the mass indicated. Activity against HEK293 NFKB reporter cells expressing human TLR7 or human TLR8 was measured according to Example 68.
(§2) HEK293 reporter cells expressing human TLR7 or human TLR8 were purchased from Invivogen and vendor protocols were followed for cellular propagation and experimentation. Briefly, cells were grown to 80-85% confluence at 5% CO2 in DMEM supplemented with 10% FBS, Zeocin, and Blasticidin. Cells were then seeded in 96-well flat plates at 4×10^4cells/well with substrate containing HEK detection medium and immunostimulatory molecules. Activity was measured using a plate reader at 620-655 nm wavelength.

human TLR8 = molecular target: T2, human TLR8 (Homo sapiens, UniProt Q9NR97); assay: HEK293 NFKB reporter assay, human TLR8; type: cell-based
T2 construct: host or cells: HEK293 reporter cells
T2 sequence (Q9NR97 27-1041): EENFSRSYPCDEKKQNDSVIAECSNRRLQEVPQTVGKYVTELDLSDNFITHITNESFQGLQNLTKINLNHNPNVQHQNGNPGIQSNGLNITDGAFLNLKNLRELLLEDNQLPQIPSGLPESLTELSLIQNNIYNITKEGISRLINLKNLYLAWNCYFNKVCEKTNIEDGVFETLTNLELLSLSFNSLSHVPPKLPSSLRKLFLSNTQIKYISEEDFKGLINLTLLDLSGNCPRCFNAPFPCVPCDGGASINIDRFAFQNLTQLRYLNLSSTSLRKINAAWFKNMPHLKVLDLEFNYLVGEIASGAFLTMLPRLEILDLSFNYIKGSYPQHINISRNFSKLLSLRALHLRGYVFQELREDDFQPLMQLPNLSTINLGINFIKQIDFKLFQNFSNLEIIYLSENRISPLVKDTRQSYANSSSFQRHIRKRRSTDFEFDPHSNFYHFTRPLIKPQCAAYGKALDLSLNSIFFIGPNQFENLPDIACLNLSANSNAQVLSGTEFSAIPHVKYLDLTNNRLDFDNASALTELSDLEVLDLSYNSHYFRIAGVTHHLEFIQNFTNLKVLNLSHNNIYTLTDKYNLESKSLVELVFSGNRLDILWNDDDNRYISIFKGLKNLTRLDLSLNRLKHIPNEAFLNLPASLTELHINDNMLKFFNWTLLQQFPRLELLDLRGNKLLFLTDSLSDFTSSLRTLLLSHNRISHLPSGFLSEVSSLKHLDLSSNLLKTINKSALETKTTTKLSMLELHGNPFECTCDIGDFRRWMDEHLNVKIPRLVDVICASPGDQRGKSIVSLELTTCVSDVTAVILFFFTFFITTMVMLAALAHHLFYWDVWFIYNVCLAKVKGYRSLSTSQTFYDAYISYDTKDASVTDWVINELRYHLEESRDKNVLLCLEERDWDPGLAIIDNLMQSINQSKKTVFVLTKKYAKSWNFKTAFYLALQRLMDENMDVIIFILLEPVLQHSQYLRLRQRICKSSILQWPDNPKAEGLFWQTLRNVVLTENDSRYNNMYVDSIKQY
Method: as §1, §2

[1] = Table 1a, HEK293 reporter cells expressing human TLR7, read-out: HEK293 hTLR7 EC50
[2] = Table 1a, HEK293 reporter cells expressing human TLR8, read-out: HEK293 hTLR8 EC50
[3] = Table 1b, HEK293 reporter cells expressing human TLR7, read-out: HEK293 hTLR7 EC50
[4] = Table 1b, HEK293 reporter cells expressing human TLR8, read-out: HEK293 hTLR8 EC50

| Structure (SMILES) | EC50 (human TLR7; [3]) | EC50 (human TLR8; [4]) | also measured |
| --- | --- | --- | --- |
| CCCN(CCCNC(=O)OCC)C(=O)C1=Cc2ccc(-c3cccc(S(=O)(=O)N4CC(CO)C4)c3)cc2N=C(N)C1 [Bz-13, ethyl N-[3-[[2-amino-8-[3-[3-(hydroxymethyl)azetidin-1-yl]sulfonylphenyl]-3H-1-benzazepine-4-carbonyl]-propyl-amino]propyl]carbamate] |  |  | EC50 (human TLR7): 1370 nM; EC50 (human TLR8): 134 nM |
| CCCN(CCC)C(=O)C1=Cc2c(CCCCN)cc(-c3cccc(S(=O)(=O)N4CC(CO)C4)c3)cc2N=C(N)C1 [Bz-14, 2-Amino-6-(4-aminobutyl)-8-(3-((3-(hydroxymethyl)azetidin-1-yl)sulfonyl)phenyl)-N,N-dipropyl-3H-benzo[b]azepine-4-carboxamide] |  |  | EC50 (human TLR7; [1]): > 9000 nM; EC50 (human TLR8; [2]): 1700 nM |
| CCCN(CCC)C(=O)C1=Cc2ccc(-c3cccc(S(=O)(=O)N4CC(CN)C4)c3)cc2N=C(N)C1 [Bz-15, 2-amino-8-[3-[3-(aminomethyl)azetidin-1-yl]sulfonylphenyl]-N,N-dipropyl-3H-1-benzazepine-4-carboxamide] |  |  | EC50 (human TLR7; [1]): > 9000 nM; EC50 (human TLR8; [2]): 103 nM |
| CCCN(CCCNC(=O)OC(C)(C)C)C(=O)C1=Cc2ccc(C(=O)Nc3ccc(N4CCC(C(=O)NCCNC(C)=O)CC4)nc3)cc2N=C(N)C1 [Bz-16, tert-butyl (3-(8-((6-(4-((2-acetamidoethyl)carbamoyl)piperidin-1-yl)pyridin-3-yl)carbamoyl)-2-amino-N-propyl-3H-benzo[b]azepine-4-carboxamido)propyl)carbamate] |  |  | EC50 (human TLR7; [1]): > 9000 nM; EC50 (human TLR8; [2]): 1050 nM |
| CCCN(CCCOCCCN)C(=O)C1=Cc2ccc(-c3cccc(S(=O)(=O)N4CC(CO)C4)c3)cc2N=C(N)C1 [Bz-18, 2-amino-N-(3-(3-aminopropoxy)propyl)-8-(3-((3-(hydroxymethyl)azetidin-1-yl)sulfonyl)phenyl)-N-propyl-3H-benzo[b]azepine-4-carboxamide] | 1990 nM | 3400 nM |  |
| CCCN(CCCNC(=O)CC(C)(C)C)C(=O)C1=Cc2ccc(-c3cccc(S(=O)(=O)N4CC(CO)C4)c3)cc2N=C(N)C1 [Bz-19, 2-amino-N-(3-(3,3-dimethylbutanamido)propyl)-8-(3-((3-(hydroxymethyl)azetidin-1-yl)sulfonyl)phenyl)-N-propyl-3H-benzo[b]azepine-4-carboxamide] | 1070 nM | 3170 nM |  |
| CCCN(CCCOCCOCCN)C(=O)C1=Cc2ccc(-c3cccc(S(=O)(=O)N4CC(CO)C4)c3)cc2N=C(N)C1 [Bz-21, 2-amino-N-(3-(2-(2-aminoethoxy)ethoxy)propyl)-8-(3-((3-(hydroxymethyl)azetidin-1-yl)sulfonyl)phenyl)-N-propyl-3H-benzo[b]azepine-4-carboxamide] | > 9000 nM | > 9000 nM |  |
| CCCN(C/C=C/CN)C(=O)C1=Cc2ccc(-c3cccc(S(=O)(=O)N4CC(CO)C4)c3)cc2N=C(N)C1 [Bz-22, 2-amino-N-[(E)-4-aminobut-2-enyl]-8-[3-[3-(hydroxymethyl)azetidin-1-yl]sulfonylphenyl]-N-propyl-3H-1-benzazepine-4-carboxamide] | > 9000 nM | > 9000 nM |  |
| CCCN(CCCNc1ncccn1)C(=O)C1=Cc2ccc(-c3cccc(S(=O)(=O)N4CC(CO)C4)c3)cc2N=C(N)C1 [Bz-23, 2-amino-8-[3-[3-(hydroxymethyl)azetidin-1-yl]sulfonylphenyl]-N-propyl-N-[3-(pyrimidin-2-ylamino)propyl]-3H-1-benzazepine-4-carboxamide] | 2430 nM | 1160 nM |  |
| CCCN(CC#CCNC(=O)OC(C)(C)C)C(=O)C1=Cc2ccc(-c3cccc(S(=O)(=O)N4CC(CO)C4)c3)cc2N=C(N)C1 [Bz-26, tert-butyl N-[4-[[2-amino-8-[3-[3-(hydroxymethyl)azetidin-1-yl]sulfonylphenyl]-3H-1-benzazepine-4-carbonyl]-propyl-amino]but-2-ynyl]carbamate] | > 9000 nM | 318 nM |  |
| CCCN(CC#CCNC(=O)OC(C)(C)C)C(=O)C1=Cc2ccc(-c3cccc(S(=O)(=O)N4CC(CN(C)C)C4)c3)cc2N=C(N)C1 [Bz-28, tert-butyl N-[4-[[2-amino-8-[3-[3-[(dimethylamino)methyl]azetidin-1-yl]sulfonylphenyl]-3H-1-benzazepine-4-carbonyl]-propyl-amino]but-2-ynyl]carbamate] | 4250 nM | 42.8 nM |  |

Further lines, with some results ahead:

| EC50 (human TLR7; [3]) | EC50 (human TLR8; [4]) | Structure (SMILES) | also measured |
| --- | --- | --- | --- |
| > 9000 nM | > 9000 nM | CCCN(CCCN)C(=O)C1=Cc2ccc(-c3cccc(S(=O)(=O)N4CC(CO)C4)c3)cc2N=C(N)C1 [Bz-17, 2-amino-N-(3-aminopropyl)-8-[3-[3-(hydroxymethyl)azetidin-1-yl]sulfonylphenyl]-N-propyl-3H-1-benzazepine-4-carboxamide] |  |
| > 9000 nM | > 9000 nM | CCCN(CCCCCN)C(=O)C1=Cc2ccc(-c3cccc(S(=O)(=O)N4CC(CO)C4)c3)cc2N=C(N)C1 [Bz-20, 2-amino-N-(5-aminopentyl)-8-(3-((3-(hydroxymethyl)azetidin-1-yl)sulfonyl)phenyl)-N-propyl-3H-benzo[b]azepine-4-carboxamide] |  |
| > 9000 nM | > 9000 nM | CCCN(CCCCN)C(=O)C1=Cc2ccc(-c3cccc(S(=O)(=O)N4CC(CO)C4)c3)cc2N=C(N)C1 [Bz-24, 2-amino-N-(4-aminobutyl)-8-[3-[3-(hydroxymethyl)azetidin-1-yl]sulfonylphenyl]-N-propyl-3H-1-benzazepine-4-carboxamide] |  |
| > 9000 nM | 1400 nM | CCCN(CCc1ccc(OC)cc1)C(=O)C1=Cc2ccc(-c3cccc(S(=O)(=O)N4CC(CO)C4)c3)cc2N=C(N)C1 [Bz-25, 2-amino-8-[3-[3-(hydroxymethyl)azetidin-1-yl]sulfonylphenyl]-N-[2-(4-methoxyphenyl)ethyl]-N-propyl-3H-1-benzazepine-4-carboxamide] |  |
| > 9000 nM | 138 nM | CCCN(Cc1ccc(CN)cc1)C(=O)C1=Cc2ccc(-c3cccc(S(=O)(=O)N4CC(CO)C4)c3)cc2N=C(N)C1 [Bz-27, 2-Amino-N-(4-(aminomethyl)benzyl)-8-(3-((3-(hydroxymethyl)azetidin-1-yl)sulfonyl)phenyl)-N-propyl-3H-benzo[b]azepine-4-carboxamide] |  |
| > 9000 nM | 32 nM | CCCN(OCC)C(=O)C1=Cc2ccc(-c3cccc(S(=O)(=O)N4CC(CO)C4)c3)cc2N=C(N)C1 [Bz-29, 2-amino-N-ethoxy-8-[3-[3-(hydroxylmethyl)azetidin-1-yl]sulfonylphenyl]-N-propyl-3H-1-benzazepine-4-carboxamide] |  |
